From ChEMBL document CHEMBL5512632, “Unlocking the potential of 1,4-naphthoquinones: A comprehensive review of their anticancer properties” (Eur J Med Chem, 2024)
pIC50: −log10 of the molar value. Converted amounts (≈) assume the structure as drawn.

What was measured:
PC-3 = assay: Cytotoxicity against human PC-3 cells assessed as reduction in cell viability incubated for 48 hrs by MTT assay; type: functional, cell-based; conditions: PC-3, 48 h
DU-145 [1] = assay: Cytotoxicity against human DU-145 cells assessed as reduction in cell viability incubated for 48 hrs by MTT assay; type: functional, cell-based; conditions: DU-145, 48 h
HCT-15 [2] = assay: Cytotoxicity against human HCT-15 cells assessed as reduction in cell viability incubated for 48 hrs by MTT assay; type: functional, cell-based; conditions: HCT-15, 48 h
MCF7 [3] = assay: Cytotoxicity against human MCF7 cells assessed as reduction in cell viability incubated for 48 hrs by MTT assay; type: functional, cell-based; conditions: MCF7, 48 h
HeLa [4] = assay: Cytotoxicity against human HeLa cells assessed as reduction in cell viability incubated for 48 hrs by MTT assay; type: functional, cell-based
MV4-11 = assay: Cytotoxicity against human MV4-11 cells incubated for 48 hrs; type: functional, cell-based; conditions: MV4-11, 48 h
MOLM-14 = assay: Cytotoxicity against human MOLM-14 cells incubated for 48 hrs; type: functional, cell-based; conditions: MOLM-14, 48 h
MDA-MB-435 = assay: Cytotoxicity against human MDA-MB-435 cells incubated for 72 hrs by MTT assay; type: functional, cell-based; conditions: MDA-MB-435, 72 h
A549 [5] = assay: Cytotoxicity against human A549 cells incubated for 72 hrs by MTT assay; type: functional, cell-based; conditions: A549, 72 h
HCT-116 [6] = assay: Cytotoxicity against human HCT-116 cells incubated for 72 hrs by MTT assay; type: functional, cell-based; conditions: HCT-116, 72 h
MCF7 [7] = assay: Cytotoxicity against human MCF7 cells incubated for 48 hrs by sulforhodamine B staining based spectrophotometric analysis; type: functional, cell-based; conditions: MCF7, 48 h
DU-145 [8] = assay: Cytotoxicity against human DU-145 cells incubated for 48 hrs by sulforhodamine B staining based spectrophotometric analysis; type: functional, cell-based; conditions: DU-145, 48 h
[9] = Antiproliferative activity against human SK-RC-45 cells assessed as reduction in cell growth incubated for 24 hrs by MTT assay; type: functional, cell-based; conditions: SK-RC-45, 24 h
HeLa [10] = assay: Antiproliferative activity against human HeLa cells assessed as reduction in cell growth incubated for 24 hrs by MTT assay; type: functional, cell-based
A549 [11] = assay: Antiproliferative activity against human A549 cells assessed as reduction in cell growth incubated for 24 hrs by MTT assay; type: functional, cell-based; conditions: A549, 24 h
Glioblastoma cell line = assay: Antiproliferative activity against human Glioblastoma cell line assessed as reduction in cell growth incubated for 24 hrs by MTT assay; type: functional, cell-based
A498 = assay: Antiproliferative activity against human A498 cells assessed as reduction in cell growth incubated for 24 hrs by MTT assay; type: functional, cell-based; conditions: A498, 24 h
SBcl2 = assay: Antiproliferative activity against human SBcl2 cells assessed as inhibition of cell growth incubated for 72 hrs by XTT assay; type: functional, cell-based; conditions: SBcl2, 72 h
WM164 = assay: Antiproliferative activity against human WM164 cells assessed as inhibition of cell growth incubated for 72 hrs by XTT assay; type: functional, cell-based; conditions: WM164, 72 h
[12] = Antiproliferative activity against human FS-1 [Human leukemia] cells assessed as inhibition of cell growth incubated for 72 hrs by XTT assay; type: functional, cell-based
MUGMel2 = assay: Antiproliferative activity against human MUG-Mel2 cells assessed as inhibition of cell growth incubated for 72 hrs by XTT assay; type: functional, cell-based; conditions: MUGMel2, 72 h
[13] = Antiproliferative activity against human WM9 cells assessed as inhibition of cell growth incubated for 72 hrs by XTT assay; type: functional, cell-based; conditions: WM9, 72 h
N2a = assay: Cytotoxicity against mouse Neuro2a cells incubated for 24 hrs by MTT reagent based microplate reader analysis; type: functional, cell-based
[14] = Cytotoxicity against mouse JB6 Cl 41-5a cells incubated for 24 hrs by MTT reagent based microplate reader analysis; type: toxicity, cell-based
HeLa [15] = assay: Cytotoxicity against human HeLa cells incubated for 24 hrs by MTT reagent based microplate reader analysis; type: functional, cell-based
MCF7 [16] = assay: Antiproliferative activity against human MCF7 cells assessed as reduction in cell growth incubated for 48 hrs by MTT reagent based microplate reader assay; type: functional; conditions: MCF7, 48 h
SK-OV-3 = assay: Antiproliferative activity against human SK-OV-3 cells assessed as reduction in cell growth incubated for 48 hrs by MTT reagent based microplate reader assay; type: functional; conditions: SK-OV-3, 48 h
HepG2 [17] = assay: Antiproliferative activity against human HepG2 cells assessed as reduction in cell growth incubated for 48 hrs by MTT reagent based microplate reader assay; type: functional; conditions: HepG2, 48 h
A549 [18] = assay: Antiproliferative activity against human A549 cells assessed as reduction in cell growth incubated for 48 hrs by MTT reagent based microplate reader assay; type: functional; conditions: A549, 48 h
LNCaP = assay: Antiproliferative activity against human LNCaP cells assessed as reduction in cell growth incubated for 48 hrs by MTT reagent based microplate reader assay; type: functional
NAMALVA [19] = assay: Antiproliferative activity against human NAMALVA cells assessed as inhibition of cell growth incubated upto 24 hrs by MTT assay; type: functional, cell-based
[20] = Cytotoxicity against human Lung adenocarcinoma cell line; type: functional, cell-based
NAMALVA [21] = assay: Antitumor activity against human NAMALVA cells xenografted in NOD/SCID mouse assessed as reduction in tumor weight at 4 mg/kg,ip administration for 19 consecutive days; type: functional; set-up: scale not given: the % may be the effect or the level left
A549 [22] = assay: Cytotoxicity against human A549 cells incubated for 24 hrs by MTT assay; type: functional, cell-based; conditions: A549, 24 h
HCT-116 [23] = assay: Cytotoxicity against human HCT-116 cells assessed as reduction in cell viability incubated for 72 hrs by MTT reagent based microplate reader assay; type: functional; conditions: HCT-116, 72 h
K562 = assay: Cytotoxicity against human K562 cells assessed as reduction in cell viability incubated for 72 hrs by MTT reagent based microplate reader assay; type: functional; conditions: K562, 72 h
HCT-15 [24] = assay: Cytotoxicity against human HCT-15 cells assessed as reduction in cell viability incubated for 72 hrs by MTT reagent based microplate reader assay; type: functional; conditions: HCT-15, 72 h
MDA-MB-231 = assay: Antiproliferative activity against human MDA-MB-231 cells incubated for 48 hrs by MTT assay; type: functional, cell-based; conditions: MDA-MB-231, 48 h
HepG2 [25] = assay: Antiproliferative activity against human HepG2 cells incubated for 48 hrs by MTT assay; type: functional, cell-based; conditions: HepG2, 48 h
A549 [26] = assay: Antiproliferative activity against human A549 cells incubated for 48 hrs by MTT assay; type: functional, cell-based; conditions: A549, 48 h

SMILES: CO/N=C1\C(c2cc3c(cc2OC)OCO3)=CC(=O)c2cc3c(cc21)OCO3
- pIC50 (PC-3): 6.50
- pIC50 (DU-145 [1]): 7.64
- pIC50 (HCT-15 [2]): 7.26
- pIC50 (MCF7 [3]): 6.71
- pIC50 (HeLa [4]): 6.98

SMILES: O=C1C(NCCO)=C(C2=C(NCCO)C(=O)c3ccccc3C2=O)C(=O)c2ccccc21
- pIC50 (MV4-11): 6.70
- pIC50 (MOLM-14): 6.80

SMILES: CC1(C)O[C@H]2[C@@H](O1)[C@@H](Cn1nnc3c1C(=O)c1cccc(O)c1C3=O)O[C@@H]1OC(C)(C)O[C@@H]12
- pIC50 (MDA-MB-435): 6.54
- pIC50 (A549 [5]): 6.00
- pIC50 (HCT-116 [6]): 6.28

SMILES: O=C1C(Cl)=C(NCCN2CCN(C3=C(Cl)C(=O)c4ccccc4C3=O)CC2)C(=O)c2ccccc21
- pIC50 (MCF7 [7]): 5.67
- pIC50 (DU-145 [8]): 5.60

SMILES: O=C1C(O)=C(C(C2=C(O)C(=O)c3ccccc3C2=O)c2ccc(C(F)(F)F)cc2)C(=O)c2ccccc21
- pIC50 [9]: 4.52
- pIC50 (HeLa [10]): 4.46
- pIC50 (A549 [11]): 4.53
- pIC50 (Glioblastoma cell line): 4.76
- pIC50 (A498): 4.56

SMILES: CC(C)=C/C=C/C1=C(C(CC=C(C)C)C2=CC(=O)c3c(O)ccc(O)c3C2=O)C(=O)c2c(O)ccc(O)c2C1=O (stereo not given)
- pIC50 (SBcl2): 6.52
- pIC50 (WM164): 5.77
- pIC50 [12]: 6.30
- pIC50 (MUGMel2): 6.15
- pIC50 [13]: 6.22

SMILES: O=C1C2=C(O[C@@H]3[C@@H](O)[C@@H](O)CO[C@H]3S2)C(=O)c2c(O)cccc21
- pIC50 (N2a): 5.85
- IC50 at 24 h [14]: 700 nM
- pIC50 (HeLa [15]): 6.40

SMILES: CC1=C(C2CC(=O)N(C)C2=O)C(=O)c2c(O)cccc2C1=O (stereo not given)
- pIC50 (MCF7 [16]): 5.31
- pIC50 (SK-OV-3): 4.91
- pIC50 (HepG2 [17]): 5.15
- pIC50 (A549 [18]): 5.21
- pIC50 (LNCaP): 5.44

SMILES: CC(C)=CC[C@@H](O)C1=CC(=O)c2c(O)ccc(O)c2C1=O [SHIKONIN]
- pIC50 (NAMALVA [19]): 3.72
- pIC50 [20]: > 5.30
- Activity (NAMALVA [21]): 50%
- IC50 (A549 [22]): 3.52 µg/mL (≈ 12.2 µM)

SMILES: COc1cc(C(CCC(C)C)OC)c(OC)c2c1/C(=N/O)C=C/C2=N/O (stereo not given)
- pIC50 (HCT-116 [23]): 5.61
- pIC50 (K562): 5.90
- pIC50 (HCT-15 [24]): 5.79

SMILES: CC1=C(CCNC(=O)c2ccccc2)C(=O)c2c(O)cccc2C1=O
- pIC50 (MDA-MB-231): 5.22
- pIC50 (HepG2 [25]): 5.14
- pIC50 (A549 [26]): 5.15
